Results: patent publication US11629171B2, “Beta-hairpin peptidomimetics” (POLYPHOR AG, priority 2017, dated 2023)
Values after ≈ are worked out from the molar mass of the structure shown. Where a SMILES comes first, the peptide text is derived from it. Bridges are numbered along the chain shown (N, C = ends). Roman numbers before positions name the chains, in order. [ ]: non-standard residue; d: D form. Tle = CC(C)(C)[C@H](N)C(=O)O; Hiv = CC(C)[C@H](O)C(=O)O; dDab = NCC[C@@H](N)C(=O)O; hSer = N[C@@H](CCO)C(=O)O; Orn = NCCC[C@H](N)C(=O)O; Dab = NCC[C@H](N)C(=O)O; Dap = NC[C@H](N)C(=O)O

Experiments:
Assay type in all cases: cell-based
[1] = system: Acinetobacter baumannii 872842; conditions: 872842
Procedure, shortened: (§1)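 Two-fold peptide dilutions in polysorbate 80-containing (0.002% final) cation-adjusted Mueller-Hinton II broth were inoculated with about 10^6 CFU/mL. The MIC was taken as the lowest concentration, in μg/mL, preventing visible growth at 18-20 hours and 35° C.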

[2] = system: Acinetobacter baumannii DSM 30008; conditions: DSM 30008
Procedure, shortened: as §1

[3] = system: Enterobacter cloacae 848840; conditions: 848840
Procedure, shortened: as §1

Escherichia coli 926415 = conditions: 926415
Procedure, shortened: as §1

[4] = system: Escherichia coli ATCC 25922; conditions: ATCC 25922
Procedure, shortened: as §1

[5] = system: Klebsiella pneumoniae 968733; conditions: 968733
Procedure, shortened: as §1

[6] = system: Klebsiella pneumoniae SSI #3010; conditions: SSI #3010
Procedure, shortened: as §1

[7] = system: Pseudomonas aeruginosa ATCC 27853; conditions: ATCC 27853
Procedure, shortened: as §1

[8] = system: human red blood cells (hRBC); assay: Hemolysis; conditions: red cells of human, 1 h, 200
Procedure, shortened: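 hRBC washed 4× in PBS; 200 μg/mL peptide + 20% (v/v) hRBC, 1 h, 37° C, 300 rpm. Spin, supernatant ~7.5-fold diluted, OD540 blank corrected. % hemolysis = OD540 peptide / OD540 Triton X-100 × 100.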

Row | SMILES | MIC [1] [µg/mL] | MIC [2] [µg/mL] | MIC [3] [µg/mL] | MIC (Escherichia coli 926415) [µg/mL] | MIC [4] [µg/mL] | MIC [5] [µg/mL] | MIC [6] [µg/mL] | MIC [7] [µg/mL] | Hemolysis at 200 μg/mL [8] [%]
1 | CC(=O)N[C@H](C(=O)N[C@H]1CSSC[C@@H](C(=O)N[C@@H](CO)C(N)=O)NC(=O)[C@H](C(C)C)NC(=O)[C@H](CCC(=O)O)NC(=O)[C@H](Cc2c[nH]c3ccccc23)NC(=O)[C@H](CCN)NC(=O)[C@@H](CCN)NC(=O)[C@H](CCC(=O)N[C@@H](CCN)C(=O)N[C@H](C(=O)N[C@@H](CN)C(=O)N[C@H]2CCNC(=O)[C@H]([C@@H](C)O)NC(=O)[C@H](CCN)NC(=O)[C@H](CCN)NC(=O)[C@H](CC(C)C)NC(=O)[C@@H](CC(C)C)NC(=O)[C@H](CCN)NC2=O)[C@@H](C)O)NC(=O)[C@H](CCN)NC(=O)[C@H](Cc2ccc(O)cc2)NC1=O)C(C)C [Ex. 153] (I: Ac-VCY[Dab]E[dDab][Dab]WEVCS-NH2 / II: [Dab]T[Dap][Dab][Dab][dL]L[Dab][Dab]T; disulfide I:2-I:11; amide I:5-II:N; lactam II:4-II:C) | 0.0625 (≈ 0.0255 µM) | 0.03125 (≈ 0.0127 µM) | 0.125 (≈ 0.0509 µM) | 0.125 (≈ 0.0509 µM) | 0.0625 (≈ 0.0255 µM) | 0.25 (≈ 0.102 µM) | 0.0625 (≈ 0.0255 µM) | 0.125 (≈ 0.0509 µM) | <1
2 | CC(=O)N[C@H](C(=O)N[C@H]1CSSC[C@@H](C(=O)N[C@@H](CO)C(N)=O)NC(=O)[C@H](C(C)(C)C)NC(=O)[C@H](CCC(=O)O)NC(=O)[C@H](Cc2c[nH]c3ccccc23)NC(=O)[C@H](CO)NC(=O)[C@@H](CCN)NC(=O)[C@H](CCC(=O)N[C@@H](CCN)C(=O)N[C@H](C(=O)N[C@@H](CN)C(=O)N[C@H]2CCNC(=O)[C@H]([C@@H](C)O)NC(=O)[C@H](CCN)NC(=O)[C@H](CCN)NC(=O)[C@H](CC(C)C)NC(=O)[C@@H](CC(C)C)NC(=O)[C@H](CCN)NC2=O)[C@@H](C)O)NC(=O)[C@H](CCN)NC(=O)[C@H](Cc2ccc(O)cc2)NC1=O)C(C)C [Ex. 154] (I: Ac-VCY[Dab]E[dDab]SWE[Tle]CS-NH2 / II: [Dab]T[Dap][Dab][Dab][dL]L[Dab][Dab]T; disulfide I:2-I:11; amide I:5-II:N; lactam II:4-II:C) | 0.0625 (≈ 0.0255 µM) | 0.01562 (≈ 0.00636 µM) | 0.125 (≈ 0.0509 µM) | 0.125 (≈ 0.0509 µM) | 0.03125 (≈ 0.0127 µM) | 0.25 (≈ 0.102 µM) | 0.0625 (≈ 0.0255 µM) | 0.125 (≈ 0.0509 µM) | <1
3 | CC(=O)N[C@H](C(=O)N[C@H]1CSSC[C@@H](C(=O)N[C@@H](CO)C(N)=O)NC(=O)[C@H](C(C)C)NC(=O)[C@H](CCC(=O)O)NC(=O)[C@H](Cc2c[nH]c3ccccc23)NC(=O)[C@H](CCO)NC(=O)[C@@H](CCN)NC(=O)[C@H](CCC(=O)N[C@@H](CCN)C(=O)N[C@H](C(=O)N[C@@H](CN)C(=O)N[C@H]2CCNC(=O)[C@H]([C@@H](C)O)NC(=O)[C@H](CCN)NC(=O)[C@H](CCN)NC(=O)[C@H](CC(C)C)NC(=O)[C@@H](CC(C)C)NC(=O)[C@H](CCN)NC2=O)[C@@H](C)O)NC(=O)[C@H](CCN)NC(=O)[C@H](Cc2ccc(O)cc2)NC1=O)C(C)C [Ex. 155] (I: Ac-VCY[Dab]E[dDab][hSer]WEVCS-NH2 / II: [Dab]T[Dap][Dab][Dab][dL]L[Dab][Dab]T; disulfide I:2-I:11; amide I:5-II:N; lactam II:4-II:C) | 0.125 (≈ 0.0509 µM) | 0.0625 (≈ 0.0255 µM) | 0.125 (≈ 0.0509 µM) | 0.5 (≈ 0.204 µM) | 0.0625 (≈ 0.0255 µM) | 0.5 (≈ 0.204 µM) | 0.125 (≈ 0.0509 µM) | 0.125 (≈ 0.0509 µM) | 1
4 | CC(=O)N[C@H](C(=O)N[C@H]1CSSC[C@@H](C(=O)N[C@@H](CO)C(N)=O)NC(=O)[C@H](C(C)(C)C)NC(=O)[C@H](CCC(=O)O)NC(=O)[C@H](Cc2c[nH]c3ccccc23)NC(=O)[C@H](CCO)NC(=O)[C@@H](CCN)NC(=O)[C@H](CCC(=O)N[C@@H](CCN)C(=O)N[C@H](C(=O)N[C@@H](CN)C(=O)N[C@H]2CCNC(=O)[C@H]([C@@H](C)O)NC(=O)[C@H](CCN)NC(=O)[C@H](CCN)NC(=O)[C@H](CC(C)C)NC(=O)[C@@H](CC(C)C)NC(=O)[C@H](CCN)NC2=O)[C@@H](C)O)NC(=O)[C@H](CCN)NC(=O)[C@H](Cc2ccc(O)cc2)NC1=O)C(C)C [Ex. 156] (I: Ac-VCY[Dab]E[dDab][hSer]WE[Tle]CS-NH2 / II: [Dab]T[Dap][Dab][Dab][dL]L[Dab][Dab]T; disulfide I:2-I:11; amide I:5-II:N; lactam II:4-II:C) | 0.125 (≈ 0.0506 µM) | 0.0625 (≈ 0.0253 µM) | 0.125 (≈ 0.0506 µM) | 0.125 (≈ 0.0506 µM) | 0.03125 (≈ 0.0127 µM) | 0.25 (≈ 0.101 µM) | 0.125 (≈ 0.0506 µM) | 0.125 (≈ 0.0506 µM) | <1
5 | CC(C)C[C@@H]1NC(=O)[C@@H](CC(C)C)NC(=O)[C@H](CCN)NC(=O)[C@@H](NC(=O)[C@H](CN)NC(=O)[C@@H](NC(=O)[C@H](CCN)NC(=O)CC[C@@H]2NC(=O)[C@H](CCN)NC(=O)[C@H](Cc3ccc(O)cc3)NC(=O)[C@@H](NC(=O)[C@@H](O)C(C)C)CSSC[C@@H](C(=O)N[C@@H](CO)C(N)=O)NC(=O)[C@H](C(C)C)NC(=O)[C@H](CCC(=O)O)NC(=O)[C@H](Cc3c[nH]c4ccccc34)NC(=O)[C@H](CCO)NC(=O)[C@@H](CCN)NC2=O)[C@@H](C)O)CCNC(=O)[C@H]([C@@H](C)O)NC(=O)[C@H](CCN)NC(=O)[C@H](CCN)NC1=O [Ex. 157] (I: H-[Hiv]CY[Dab]E[dDab][hSer]WEVCS-NH2 / II: [Dab]T[Dap][Dab][Dab][dL]L[Dab][Dab]T; disulfide I:2-I:11; amide I:5-II:N; lactam II:4-II:C) | 0.5 (≈ 0.207 µM) | 0.125 (≈ 0.0518 µM) | 0.25 (≈ 0.104 µM) | 1 (≈ 0.414 µM) | 0.0625 (≈ 0.0259 µM) | 1 (≈ 0.414 µM) | 0.125 (≈ 0.0518 µM) | 0.25 (≈ 0.104 µM) | <1
6 | CC(=O)N[C@H](C(=O)N[C@H]1CSSC[C@@H](C(=O)N[C@@H](CO)C(N)=O)NC(=O)[C@H](C(C)C)NC(=O)[C@H](CCC(=O)O)NC(=O)[C@H](Cc2c[nH]c3ccccc23)NC(=O)[C@H](CCO)NC(=O)[C@@H](CCN)NC(=O)[C@H](CCC(=O)N[C@@H](CCN)C(=O)N[C@H](C(=O)N[C@@H](CN)C(=O)N[C@H]2CCNC(=O)[C@H]([C@@H](C)O)NC(=O)[C@H](CCN)NC(=O)[C@H](CCN)NC(=O)[C@H](CC(C)C)NC(=O)[C@@H](CC(C)C)NC(=O)[C@H](CCN)NC2=O)[C@@H](C)O)NC(=O)[C@H](CCCCN)NC(=O)[C@H](Cc2ccc(O)cc2)NC1=O)C(C)C [Ex. 158] (I: Ac-VCYKE[dDab][hSer]WEVCS-NH2 / II: [Dab]T[Dap][Dab][Dab][dL]L[Dab][Dab]T; disulfide I:2-I:11; amide I:5-II:N; lactam II:4-II:C) | 0.25 (≈ 0.101 µM) | 0.0625 (≈ 0.0252 µM) | 0.125 (≈ 0.0503 µM) | 0.5 (≈ 0.201 µM) | 0.0625 (≈ 0.0252 µM) | 1 (≈ 0.403 µM) | 0.125 (≈ 0.0503 µM) | 0.25 (≈ 0.101 µM) | <1
7 | CC(=O)N[C@H](C(=O)N[C@H]1CSSC[C@@H](C(=O)N[C@@H](CO)C(N)=O)NC(=O)[C@H](C(C)(C)C)NC(=O)[C@H](CCC(=O)O)NC(=O)[C@H](Cc2c[nH]c3ccccc23)NC(=O)[C@H](CCO)NC(=O)[C@@H](CCN)NC(=O)[C@H](CCC(=O)N[C@@H](CCN)C(=O)N[C@H](C(=O)N[C@@H](CN)C(=O)N[C@H]2CCNC(=O)[C@H]([C@@H](C)O)NC(=O)[C@H](CCN)NC(=O)[C@H](CCN)NC(=O)[C@H](CC(C)C)NC(=O)[C@@H](CC(C)C)NC(=O)[C@H](CCN)NC2=O)[C@@H](C)O)NC(=O)[C@H](CCCCN)NC(=O)[C@H](Cc2ccc(O)cc2)NC1=O)C(C)C [Ex. 159] (I: Ac-VCYKE[dDab][hSer]WE[Tle]CS-NH2 / II: [Dab]T[Dap][Dab][Dab][dL]L[Dab][Dab]T; disulfide I:2-I:11; amide I:5-II:N; lactam II:4-II:C) | 0.25 (≈ 0.1 µM) | 0.0625 (≈ 0.025 µM) | 0.125 (≈ 0.0501 µM) | 0.25 (≈ 0.1 µM) | 0.0625 (≈ 0.025 µM) | 0.5 (≈ 0.2 µM) | 0.125 (≈ 0.0501 µM) | 0.125 (≈ 0.0501 µM) | <1
8 | CC(C)C[C@@H]1NC(=O)[C@@H](CC(C)C)NC(=O)[C@H](CCN)NC(=O)[C@@H](NC(=O)[C@H](CN)NC(=O)[C@@H](NC(=O)[C@H](CCN)NC(=O)CC[C@@H]2NC(=O)[C@H](CCCN)NC(=O)[C@H](CCN)NC(=O)[C@H](Cc3ccc(O)cc3)NC(=O)[C@@H](NC(=O)[C@@H](O)C(C)C)CSSC[C@@H](C(=O)N[C@H](C(N)=O)[C@@H](C)O)NC(=O)[C@H](C(C)(C)C)NC(=O)[C@H](CO)NC(=O)[C@H](Cc3c[nH]c4ccccc34)NC(=O)[C@H]([C@@H](C)O)NC2=O)[C@@H](C)O)CCNC(=O)[C@H]([C@@H](C)O)NC(=O)[C@H](CCN)NC(=O)[C@H](CCN)NC1=O [Ex. 160] (I: H-[Hiv]CY[Dab][Orn]ETWS[Tle]CT-NH2 / II: [Dab]T[Dap][Dab][Dab][dL]L[Dab][Dab]T; disulfide I:2-I:11; amide I:6-II:N; lactam II:4-II:C) | 0.5 (≈ 0.207 µM) | 0.125 (≈ 0.0518 µM) | 2 (≈ 0.829 µM) | 0.5 (≈ 0.207 µM) | 0.125 (≈ 0.0518 µM) | 0.5 (≈ 0.207 µM) | 0.25 (≈ 0.104 µM) | 0.25 (≈ 0.104 µM) | <1
